Values quoted from earlier work as cited in patent US20120178114A1, “METHODS AND DEVICES FOR DETECTING THROMBIN GENERATION” (SUBC, INC., priority 2007, published 2012).

Target: thrombin (Homo sapiens, UniProt P00734)
Conditions: BAEE as thrombin substrate

CCOC(=O)[C@H](CCCNC(=N)N)NC(=O)c1ccccc1 [BAEE, benzoylarginine ethyl ester]
Km: 100 µM | kcat: 50 s⁻¹
